Laboratory results from patent US20100222421A1, “Usage of Baicalein in the Preparation of a Pharmaceutical Composition for the Treatment of Traumatic Brain Injury” (National Defense Medical Center, priority 2009, published 2010).

Tested on: rats with controlled cortical impact (CCI) injury
Test: Tactile adhesive-removal somatosensory test after CCI injury
Type: in vivo, rat
Details: P<0.05; for adhesive-removal times versus vehicle-treated rats: days 1, 4 and 7
Protocol: A previously described CCI injury procedure was utilized (Chen et al., 2003). Male Sprague-Dawley rats, which have body weight of 250-300 g, were anaesthetized with sodium pentobarbital (i.p.; 50 mgkg^−1; Rhone Merieux, Harlow, UK) and placed in a stereotaxic frame. A 5-mm craniotomy was performed over the left parietal cortex, centered on the coronal suture and 3 mm lateral to the sagittal suture. Considerable care was taken to avoid injury to the underlying dura. Injury was made using a pneumatic piston with a rounded metal tip (2.5 mm diameter) that was angled 22.5° C. to the vertical so that the tip was perpendicular with the brain surface at the centre of the craniotomy. A velocity of 4 ms^−1 and a deformation depth 2 mm below the dura were used. The bone flap was immediately replaced and sealed, and the scalp was closed with sutures. Body temperature was monitored throughout the surgery by a rectal probe; temperature was maintained at 37.0±0.5° C. using a heated pad. Rats were placed in a heated cage to maintain body temperature, while recovering from anaesthesia. Baicalein (30 mg kg^−1) dissolved in 10% dimethyl sulphoxide (0.25-0.3 mL) or a corresponding volume of vehicle (10% dimethyl sulphoxide) was administered i.p. immediately following injury or daily for 4 days (immediately, 25, 49 and 73 h) after injury. Behaviour testing using the rotarod, tactile adhesive removal, mNSS and beam walk tests was performed at 28 hours as well as 4, 7, 14, 21 and 28 days post-injury. At 14 and 28 days, the animals were killed, perfused intravascularly and their brains were processed with cresyl violet staining to assess contusion volume (n=8 for each group). […] Behaviour testing was performed before CCI and at […] after CCI by an observer who was unaware of the experimental treatments. […] The time required for each rat to remove adhesive from the forelimb was recorded for five trials per day. […] One hour before CCI, mean latency (in seconds) over five trials to remove the contralateral (right) adhesive was recorded as the pre-injury baseline value.

O=c1cc(-c2ccccc2)oc2cc(O)c(O)c(O)c12 [baicalein]
significantly lower: adhesive-removal times, multiple doses versus single dose (30 mg kg^-1 i.p., only on day 7 after injury) | adhesive-removal times versus vehicle-treated rats (multiple-dose 30 mg kg^-1 i.p. daily for 4 days) | adhesive-removal times versus vehicle-treated rats (single-dose 30 mg kg^-1 i.p.)
